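Results reflect a 48-hour exposure of cells in 96-well plates to compound at five concentrations. TGI denotes the concentration required for complete inhibition of growth.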
Experiments:
Assay in all cases: growth of human tumour cells (NCI), 48 h
MOLT-4 leukemia = system: MOLT-4 leukemia
HOP-92 NSCLC = system: HOP-92 NSCLC
SF-295 CNS = system: SF-295 CNS
COLO 205 colon = system: COLO 205 colon
SNB-78 CNS = system: SNB-78 CNS
HCT-116 colon = system: HCT-116 colon
RPMI-8226 leukemia = system: RPMI-8226 leukemia
UACC-257 melanoma = system: UACC-257 melanoma
SK-OV-3 ovarian = system: SK-OV-3 ovarian
DLD-1 colon = system: DLD-1 colon
M19-MEL melanoma = system: M19-MEL melanoma
DMS 273 small cell lung = system: DMS 273 small cell lung
MALME-3M melanoma = system: MALME-3M melanoma
DMS 114 small cell lung = system: DMS 114 small cell lung
CCRF-CEM leukemia = system: CCRF-CEM leukemia
HCC-2998 colon = system: HCC-2998 colon
TK-10 renal = system: TK-10 renal
SF-539 CNS = system: SF-539 CNS
KM12 colon = system: KM12 colon
HOP-62 NSCLC = system: HOP-62 NSCLC
SNB-75 CNS = system: SNB-75 CNS
A549 NSCLC = system: A549 NSCLC
OVCAR-3 ovarian = system: OVCAR-3 ovarian
EKVX NSCLC = system: EKVX NSCLC
K-562 leukemia = system: K-562 leukemia
786-0 renal = system: 786-0 renal
RXF-631 renal = system: RXF-631 renal
UACC-62 melanoma = system: UACC-62 melanoma
HL-60(TB) leukemia = system: HL-60(TB) leukemia
SN12C renal = system: SN12C renal
U251 CNS = system: U251 CNS
HT29 colon = system: HT29 colon
SF-268 CNS = system: SF-268 CNS
LXFL 529 NSCLC = system: LXFL 529 NSCLC
OVCAR-8 ovarian = system: OVCAR-8 ovarian
ACHN renal = system: ACHN renal
NCI-H522 lung = system: NCI-H522 lung
M14 melanoma = system: M14 melanoma
NCI-H460 lung = system: NCI-H460 lung
KM20L2 colon = system: KM20L2 colon
UO-31 renal = system: UO-31 renal
NCI-H23 lung = system: NCI-H23 lung
A498 renal = system: A498 renal
HOP-18 NSCLC = system: HOP-18 NSCLC
HCT-15 colon = system: HCT-15 colon
SK-MEL-28 melanoma = system: SK-MEL-28 melanoma
SK-MEL-5 melanoma = system: SK-MEL-5 melanoma
OVCAR-4 ovarian = system: OVCAR-4 ovarian
NCI-H226 lung = system: NCI-H226 lung
SR leukemia = system: SR leukemia
IGROV1 ovarian = system: IGROV1 ovarian
SK-MEL-2 melanoma = system: SK-MEL-2 melanoma
OVCAR-5 ovarian = system: OVCAR-5 ovarian
CAKI-1 renal = system: CAKI-1 renal
RXF 393 renal = system: RXF 393 renal
LOX IMVI melanoma = system: LOX IMVI melanoma
SW-620 colon = system: SW-620 colon
SNB-19 CNS = system: SNB-19 CNS

In the case of `NCCCNC(=O)c1csc(NC(=O)c2csc(NC(=O)CCCN)n2)n1`, the TGI (MOLT-4 leukemia) is reported as over 100 µM, the TGI (HOP-92 NSCLC) is reported as over 100 µM and the TGI (SF-295 CNS) is reported as over 100 µM. The TGI (COLO 205 colon) was over 100 µM, the TGI (SNB-78 CNS) was over 100 µM and the TGI (HCT-116 colon) was over 100 µM. For the same compound, the TGI (RPMI-8226 leukemia) was over 100 µM, the TGI (UACC-257 melanoma) was over 100 µM and the TGI (SK-OV-3 ovarian) was over 100 µM. For the same compound, the TGI (DLD-1 colon) was over 100 µM, the TGI (M19-MEL melanoma) was over 100 µM and the TGI (DMS 273 small cell lung) was over 100 µM. It also gave a TGI (MALME-3M melanoma) of over 100 µM, a TGI (DMS 114 small cell lung) of over 100 µM and a TGI (CCRF-CEM leukemia) of over 100 µM. For the same compound, the TGI (HCC-2998 colon) was over 100 µM, the TGI (TK-10 renal) was over 100 µM and the TGI (SF-539 CNS) was over 100 µM. It also gave a TGI (KM12 colon) of over 100 µM, a TGI (HOP-62 NSCLC) of over 100 µM and a TGI (SNB-75 CNS) of over 100 µM. The TGI (A549 NSCLC) was over 100 µM, the TGI (OVCAR-3 ovarian) was over 100 µM and the TGI (EKVX NSCLC) was over 100 µM. For the same compound, the TGI (K-562 leukemia) was over 100 µM, the TGI (786-0 renal) was over 100 µM and the TGI (RXF-631 renal) was over 100 µM. For the same compound, the TGI (UACC-62 melanoma) was over 100 µM, the TGI (HL-60(TB) leukemia) was over 100 µM and the TGI (SN12C renal) was over 100 µM. It also gave a TGI (U251 CNS) of over 100 µM, a TGI (HT29 colon) of over 100 µM and a TGI (SF-268 CNS) of over 100 µM. It also gave a TGI (LXFL 529 NSCLC) of over 100 µM, a TGI (OVCAR-8 ovarian) of over 100 µM and a TGI (ACHN renal) of over 100 µM. The TGI (NCI-H522 lung) was over 100 µM, the TGI (M14 melanoma) was over 100 µM and the TGI (NCI-H460 lung) was over 100 µM. The TGI (KM20L2 colon) was over 100 µM, the TGI (UO-31 renal) was over 100 µM and the TGI (NCI-H23 lung) was over 100 µM. The TGI (A498 renal) was over 100 µM, the TGI (HOP-18 NSCLC) was over 100 µM and the TGI (HCT-15 colon) was over 100 µM. It also gave a TGI (SK-MEL-28 melanoma) of over 100 µM, a TGI (SK-MEL-5 melanoma) of over 100 µM and a TGI (OVCAR-4 ovarian) of 44 µM. The TGI (NCI-H226 lung) was over 100 µM, the TGI (SR leukemia) was over 100 µM and the TGI (IGROV1 ovarian) was over 100 µM. The TGI (SK-MEL-2 melanoma) was over 100 µM, the TGI (OVCAR-5 ovarian) was over 100 µM and the TGI (CAKI-1 renal) was over 100 µM.
Work on `COc1cc2c(c(OC)c1OC)CCNC2C1=C(O)COC1=O` (stereo not drawn) yielded a TGI (MOLT-4 leukemia) of over 100 µM, a TGI (HOP-92 NSCLC) of over 100 µM and a TGI (SF-295 CNS) of over 100 µM. It also gave a TGI (COLO 205 colon) of over 100 µM, a TGI (SNB-78 CNS) of over 100 µM and a TGI (RXF 393 renal) of over 100 µM. The TGI (LOX IMVI melanoma) was over 100 µM, the TGI (HCT-116 colon) was over 100 µM and the TGI (RPMI-8226 leukemia) was over 100 µM. It also gave a TGI (UACC-257 melanoma) of over 100 µM, a TGI (SK-OV-3 ovarian) of over 100 µM and a TGI (DLD-1 colon) of over 100 µM. For the same compound, the TGI (M19-MEL melanoma) was over 100 µM, the TGI (DMS 273 small cell lung) was over 100 µM and the TGI (MALME-3M melanoma) was over 100 µM. For the same compound, the TGI (DMS 114 small cell lung) was over 100 µM, the TGI (CCRF-CEM leukemia) was over 100 µM and the TGI (HCC-2998 colon) was over 100 µM. It also gave a TGI (TK-10 renal) of over 100 µM, a TGI (SF-539 CNS) of over 100 µM and a TGI (KM12 colon) of over 100 µM. It also gave a TGI (SW-620 colon) of over 100 µM, a TGI (HOP-62 NSCLC) of over 100 µM and a TGI (SNB-75 CNS) of over 100 µM. For the same compound, the TGI (A549 NSCLC) was over 100 µM, the TGI (K-562 leukemia) was over 100 µM and the TGI (786-0 renal) was over 100 µM. It also gave a TGI (RXF-631 renal) of over 100 µM, a TGI (UACC-62 melanoma) of over 100 µM and a TGI (HL-60(TB) leukemia) of over 100 µM. The TGI (SN12C renal) was over 100 µM, the TGI (U251 CNS) was over 100 µM and the TGI (HT29 colon) was over 100 µM. The TGI (SF-268 CNS) was over 100 µM, the TGI (LXFL 529 NSCLC) was over 100 µM and the TGI (OVCAR-8 ovarian) was over 100 µM. For the same compound, the TGI (ACHN renal) was over 100 µM, the TGI (NCI-H522 lung) was over 100 µM and the TGI (M14 melanoma) was over 100 µM. For the same compound, the TGI (NCI-H460 lung) was over 100 µM, the TGI (KM20L2 colon) was over 100 µM and the TGI (UO-31 renal) was over 100 µM. For the same compound, the TGI (A498 renal) was over 100 µM, the TGI (HOP-18 NSCLC) was over 100 µM and the TGI (HCT-15 colon) was over 100 µM. For the same compound, the TGI (SK-MEL-5 melanoma) was over 100 µM, the TGI (OVCAR-4 ovarian) was over 100 µM and the TGI (SNB-19 CNS) was over 100 µM. It also gave a TGI (NCI-H226 lung) of 99.5 µM, a TGI (SR leukemia) of over 100 µM and a TGI (IGROV1 ovarian) of over 100 µM. The TGI (SK-MEL-2 melanoma) was over 100 µM, the TGI (OVCAR-5 ovarian) was over 100 µM and the TGI (CAKI-1 renal) was over 100 µM.
